Results published in PubChem BioAssay AID1421 (Emory University Molecular Libraries Screening Center, 2008).
The source made the active and inactive calls. How the calls were made is not given here.

molecular target: Prostaglandin E2 receptor EP2 subtype (Homo sapiens) (UniProt P43116); test: EP2 receptor modulators, dose response, cell-based, human EP2, PGE2 EC50 shift (AID 1421); settings: EP2-expressing cells, PGE2 EC50 shift by compound
Sequence (P43116 whole entry, looked up): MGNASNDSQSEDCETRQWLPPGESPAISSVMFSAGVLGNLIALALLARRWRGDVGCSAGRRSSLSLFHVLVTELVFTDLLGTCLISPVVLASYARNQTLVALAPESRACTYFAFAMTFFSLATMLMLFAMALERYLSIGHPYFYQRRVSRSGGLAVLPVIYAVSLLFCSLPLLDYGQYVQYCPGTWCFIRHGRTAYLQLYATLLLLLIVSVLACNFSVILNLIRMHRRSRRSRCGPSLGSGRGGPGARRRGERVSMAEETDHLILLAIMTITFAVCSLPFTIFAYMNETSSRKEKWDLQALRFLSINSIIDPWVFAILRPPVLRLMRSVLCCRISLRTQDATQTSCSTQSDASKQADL

Row | outcome | SMILES
1 | active | Cc1cc(C)n(-c2nc3ccccc3nc2Nc2ccc3[nH]c(=O)[nH]c3c2)n1
2 | active | O=C(Nc1ccccc1Cl)N1CCSc2ccccc21
3 | active | CSc1ccccc1NC(=O)CN(C)Cc1cccc(Cl)c1
4 | active | CCC(C)N(C)C(=O)c1cc2ccccc2c(-c2ccccc2Cl)n1 (stereo not given)
5 | active | Cc1nc2c(c(C)nn2-c2ccccc2)c(C)c1Cl
6 | active | CC(C)Sc1cc(N2CCOCC2)nc(-c2ccc(Cl)cc2)n1

same assay, conditions: EP2-expressing cells, PGE2 EC50 shift by compound; measured here: PGE2 EC50 at 6.7 uM compound

Row | PGE2 EC50 with compound [nM] | SMILES
7 | 1.15 | CCn1c2ccccc2c2cc(/C=N/n3c(C)nnc3C)ccc21
8 | 0.83 | Cc1cc(C)n(-c2nc3ccccc3nc2Nc2ccc3[nH]c(=O)[nH]c3c2)n1
9 | 1.15 | Cc1ccc(/C=C/c2nc3ccccc3c(=O)n2CCc2ccccc2)cc1
10 | 2.52 | CC(=O)c1ccc(-n2c(C)ccc2-c2ccccc2)cc1
11 | 1.42 | CCCn1c(C)nc2c(c1=O)c1nc3ccccc3nc1n2CCC1=CCCCC1
12 | 1.42 | OCCCNc1nc(-c2ccc(Br)cc2)nnc1-c1ccc(Cl)cc1
13 | 0.9 | CC1(c2ccccc2)CC(C)(C)N(C(=O)C2CCCO2)c2ccccc21 (stereo not given)
14 | 0.6 | CCOC(=O)c1sc2nc3c(SCC(=O)O)cc(C(=O)c4cc(F)ccc4O)cn3c(=O)c2c1C
15 | 0.98 | Nc1ccccc1CCCC(=O)O
16 | 0.83 | Cc1cccc(OC(=O)c2sc(Cl)nc2C)c1
17 | 0.87 | Cc1cc(SCC(=O)Nc2cccnc2Cl)nc2ccccc12
18 | 1.15 | O=S(Cc1cc(Sc2ccccc2)nc(-c2ccccc2)n1)c1ccccc1 (stereo not given)
19 | 1.34 | CC(=O)O[C@H]1CC[C@@]2(C)[C@@H](CC[C@H]3[C@H]2CC(=O)[C@]2(C)[C@@H]3C[C@H]3CC(C)=CC(=O)[C@@H]32)C1
20 | 1.13 | O=C(OCc1ccccc1Cl)c1ccccc1C(=O)c1ccccc1
21 | 1.13 | Cc1cccc(Cn2c(=O)n(Cc3ccco3)c(=O)c3ccccc32)c1
22 | 1.06 | S=c1[nH]nc(-c2ccco2)n1/N=C/c1ccc(Cl)cc1Cl
23 | 1.36 | COc1cc(/C=C2\SC(=S)N(Nc3ncc(C(F)(F)F)cc3Cl)C2=O)ccc1O

Row | PGE2 EC50 with compound [nM] | SMILES
24 | 1.57 | Cc1cc(=O)oc(C)c1C(=O)OC(C(=O)c1ccccc1)c1ccccc1 (stereo not given)
25 | 1.13 | Cc1cccc(NCc2nc3ccccc3n2Cc2ccccc2)c1
26 | 0.87 | O=C(c1ccc(Cl)cc1)c1oc2ccccc2c1CS(=O)c1ccccc1 (stereo not given)
27 | 0.77 | CN(C)Cc1ccc(F)cc1Sc1cc(Cl)ccc1Cl
28 | 1.41 | COc1ccc(Cc2n[nH]c(=S)n2Cc2ccccc2)cc1Cl
29 | 0.92 | Cc1onc(-c2c(F)cccc2Cl)c1C(=O)OCn1nnc2ccccc2c1=O
30 | 0.33 | CCC(c1nnnn1C1CCCC1)N(Cc1cccs1)Cc1cc2cc(C)ccc2[nH]c1=O (stereo not given)
31 | 1.07 | O=C(Cc1ccc(Cl)cc1)Nc1ccccc1Sc1ccccc1
32 | 2.73 | Cc1nc(N2N=C(c3ccc(Cl)cc3)CC2c2ccco2)sc1C(=O)N(C)C (stereo not given)
33 | 1.01 | Brc1ccc(-c2ccc(/C=N/Nc3nc(N4CCOCC4)nc(N4CCOCC4)n3)o2)cc1
34 | 2.59 | Cn1c(=O)c2c(nc(CN3CCN(c4ccccc4)CC3)n2Cc2ccccc2Cl)n(C)c1=O
35 | 0.86 | Cc1ccc2c3c(cccc13)-c1ccccc1C2=O
36 | 1.08 | COc1ccc2cc3c(N)nn(C(=O)C4CCC(C(C)(C)C)CC4)c3nc2c1 (stereo not given)
37 | 0.93 | CSc1nc(Oc2ccccc2)c2sccc2n1
38 | 2.79 | O=C(O)CSc1ccc2ccccc2n1
39 | 1.6 | COc1ccc(C(=O)NCC(=O)n2nc(C)cc2C)cc1OC
40 | 1.24 | CCOC(=O)CC(=O)CSc1nc(-c2ccc3c(c2)OCO3)cc(C(F)(F)F)c1C#N
